Assay results reported in ChEMBL document CHEMBL1140184, “Synthesis and structure-activity relationship studies of highly potent novel oxazolidinone antibacterials” (2008).
≈ marks a conversion by molar mass, not a printed value.

What was measured:
Format in all cases: functional
Haemophilus influenzae = assay: Antibacterial activity against Haemophilus influenzae IID983 by agar dilution method
Staphylococcus aureus [1] = assay: Antibacterial activity against methicillin-resistant Staphylococcus aureus TK7 by agar dilution method
Streptococcus pneumoniae [2] = assay: Antibacterial activity against penicillin-susceptible Streptococcus pneumoniae IID553 by agar dilution method
Enterococcus faecium = assay: Antibacterial activity against vancomycin-resistant Enterococcus faecium A2280 by agar dilution method
Staphylococcus aureus [3] = assay: Antibacterial activity against methicillin-sensitive Staphylococcus aureus Smith by agar dilution method
Streptococcus pneumoniae [4] = assay: Antibacterial activity against penicillin-resistant Streptococcus pneumoniae PR44 by agar dilution method

Row | Compound | MIC (Haemophilus influenzae) | MIC (Staphylococcus aureus [1]) | MIC (Streptococcus pneumoniae [2]) | MIC (Enterococcus faecium) | MIC (Staphylococcus aureus [3]) | MIC (Streptococcus pneumoniae [4])
1 | N#Cc1ccc(N2C[C@@H]3[C@H](C2)[C@@]3(C#N)c2ccc(-c3ccc(N4C[C@H](Cn5ccnn5)OC4=O)cc3F)cn2)nc1 | > 2 µg/mL | 0.06 µg/mL (≈ 0.11 µM) | 0.125 µg/mL (≈ 0.228 µM) | 0.125 µg/mL (≈ 0.228 µM) | 0.06 µg/mL (≈ 0.11 µM) | 0.06 µg/mL (≈ 0.11 µM)
2 | N[C@]1(c2ccc(-c3ccc(N4C[C@H](Cn5ccnn5)OC4=O)cc3F)cn2)[C@@H]2CNC[C@@H]21 | 32 µg/mL (≈ 73.5 µM) | 2 µg/mL (≈ 4.59 µM) | 0.5 µg/mL (≈ 1.15 µM) | 2 µg/mL (≈ 4.59 µM) | 1 µg/mL (≈ 2.3 µM) | 0.5 µg/mL (≈ 1.15 µM)
3 | CC(=O)NC[C@H]1CN(c2ccc(-c3ccc([C@@]4(C#N)[C@@H]5CNC[C@@H]54)nc3)c(F)c2)C(=O)O1 | 4 µg/mL (≈ 9.19 µM) | 0.125 µg/mL (≈ 0.287 µM) | 0.125 µg/mL (≈ 0.287 µM) | 0.25 µg/mL (≈ 0.574 µM) | 0.125 µg/mL (≈ 0.287 µM) | 0.06 µg/mL (≈ 0.138 µM)
4 | COC(=S)NC[C@H]1CN(c2ccc(-c3ccc([C@@]4(C#N)[C@@H]5CNC[C@@H]54)nc3)c(F)c2)C(=O)O1 | 0.5 µg/mL (≈ 1.07 µM) | 0.03 µg/mL (≈ 0.0642 µM) | 0.03 µg/mL (≈ 0.0642 µM) | 0.06 µg/mL (≈ 0.128 µM) | 0.03 µg/mL (≈ 0.0642 µM) | 0.03 µg/mL (≈ 0.0642 µM)
5 | N#C[C@]1(c2ccc(-c3ccc(N4C[C@H](CNc5ccon5)OC4=O)cc3F)cn2)[C@@H]2CNC[C@@H]21 | > 16 µg/mL | 0.125 µg/mL (≈ 0.271 µM) | 0.25 µg/mL (≈ 0.543 µM) | 0.5 µg/mL (≈ 1.09 µM) | 0.125 µg/mL (≈ 0.271 µM) | 0.25 µg/mL (≈ 0.543 µM)
6 | N#C[C@]1(c2ccc(-c3ccc(N4C[C@H](CNC(=O)C5CC5)OC4=O)cc3F)cn2)[C@@H]2CNC[C@@H]21 | 8 µg/mL (≈ 17.3 µM) | 0.25 µg/mL (≈ 0.542 µM) | 0.25 µg/mL (≈ 0.542 µM) | 0.5 µg/mL (≈ 1.08 µM) | 0.5 µg/mL (≈ 1.08 µM) | 0.25 µg/mL (≈ 0.542 µM)
7 | NC(=O)[C@]1(c2ccc(-c3ccc(N4C[C@H](Cn5ccnn5)OC4=O)cc3F)cn2)[C@@H]2CNC[C@@H]21 |  | 2 µg/mL (≈ 4.32 µM) | 1 µg/mL (≈ 2.16 µM) | 4 µg/mL (≈ 8.63 µM) | 2 µg/mL (≈ 4.32 µM) | 0.5 µg/mL (≈ 1.08 µM)
8 | CCC(=O)NC[C@H]1CN(c2ccc(-c3ccc([C@@]4(C#N)[C@@H]5CNC[C@@H]54)nc3)c(F)c2)C(=O)O1 | 8 µg/mL (≈ 17.8 µM) | 0.25 µg/mL (≈ 0.556 µM) | 0.25 µg/mL (≈ 0.556 µM) | 0.25 µg/mL (≈ 0.556 µM) | 0.25 µg/mL (≈ 0.556 µM) | 0.125 µg/mL (≈ 0.278 µM)
9 | N#C[C@]1(c2ccc(-c3ccc(N4C[C@H](CNC(=O)C(F)F)OC4=O)cc3F)cn2)[C@@H]2CNC[C@@H]21 | 2 µg/mL (≈ 4.24 µM) | 0.125 µg/mL (≈ 0.265 µM) | 0.06 µg/mL (≈ 0.127 µM) | 0.25 µg/mL (≈ 0.53 µM) | 0.125 µg/mL (≈ 0.265 µM) | 0.06 µg/mL (≈ 0.127 µM)
10 | N#C[C@]1(c2ccc(-c3ccc(N4C[C@H](Cn5ccnn5)OC4=O)cc3F)cn2)[C@@H]2CS(=O)(=O)C[C@@H]21 | 4 µg/mL (≈ 8.09 µM) | 0.125 µg/mL (≈ 0.253 µM) | 0.125 µg/mL (≈ 0.253 µM) | 0.06 µg/mL (≈ 0.121 µM) | 0.06 µg/mL (≈ 0.121 µM) | 0.06 µg/mL (≈ 0.121 µM)
11 | N#C[C@]1(c2ccc(-c3ccc(N4C[C@H](Cn5ccnn5)OC4=O)cc3)cn2)[C@@H]2CNC[C@@H]21 | 2 µg/mL (≈ 4.68 µM) | 0.125 µg/mL (≈ 0.292 µM) | 0.125 µg/mL (≈ 0.292 µM) | 0.25 µg/mL (≈ 0.585 µM) | 0.125 µg/mL (≈ 0.292 µM) | 0.125 µg/mL (≈ 0.292 µM)
12 | N#C[C@]1(c2ccc(-c3ccc(N4C[C@H](Cn5ccnn5)OC4=O)cc3F)cn2)[C@@H]2CNC[C@@H]21 | 2 µg/mL (≈ 4.49 µM) | 0.06 µg/mL (≈ 0.135 µM) | 0.06 µg/mL (≈ 0.135 µM) | 0.125 µg/mL (≈ 0.281 µM) | 0.06 µg/mL (≈ 0.135 µM) | 0.06 µg/mL (≈ 0.135 µM)
13 | N#C[C@]1(c2ccc(-c3c(F)cc(N4C[C@H](Cn5ccnn5)OC4=O)cc3F)cn2)[C@@H]2C[S+]([O-])C[C@@H]21 (stereo partly specified) | 8 µg/mL (≈ 16.1 µM) | 0.06 µg/mL (≈ 0.121 µM) | 0.125 µg/mL (≈ 0.252 µM) | 0.125 µg/mL (≈ 0.252 µM) | 0.06 µg/mL (≈ 0.121 µM) | 0.125 µg/mL (≈ 0.252 µM)
14 | N#C[C@]1(c2ccc(-c3ccc(N4C[C@H](Cn5ccnn5)OC4=O)cc3F)cc2F)[C@@H]2CNC[C@@H]21 | 16 µg/mL (≈ 34.6 µM) | 0.125 µg/mL (≈ 0.27 µM) | 0.25 µg/mL (≈ 0.541 µM) | 0.25 µg/mL (≈ 0.541 µM) | 0.25 µg/mL (≈ 0.541 µM) | 0.25 µg/mL (≈ 0.541 µM)
15 | N#C[C@]1(c2c(F)cc(-c3ccc(N4C[C@H](Cn5ccnn5)OC4=O)cc3F)cc2F)[C@@H]2CNC[C@@H]21 | > 128 µg/mL | 0.5 µg/mL (≈ 1.04 µM) | 1 µg/mL (≈ 2.08 µM) | 0.25 µg/mL (≈ 0.52 µM) | 0.5 µg/mL (≈ 1.04 µM) | 1 µg/mL (≈ 2.08 µM)
16 | N#C[C@]1(c2ccc(-c3c(F)cc(N4C[C@H](Cn5ccnn5)OC4=O)cc3F)cn2)[C@@H]2CS(=O)(=O)C[C@@H]21 | 4 µg/mL (≈ 7.8 µM) | 0.06 µg/mL (≈ 0.117 µM) | 0.06 µg/mL (≈ 0.117 µM) | 0.125 µg/mL (≈ 0.244 µM) | 0.06 µg/mL (≈ 0.117 µM) | 0.06 µg/mL (≈ 0.117 µM)
17 | N#C[C@]1(c2ccc(-c3c(F)cc(N4C[C@H](Cn5ccnn5)OC4=O)cc3F)cn2)[C@@H]2CSC[C@@H]21 | > 16 µg/mL | 0.06 µg/mL (≈ 0.125 µM) | 0.25 µg/mL (≈ 0.52 µM) | 0.5 µg/mL (≈ 1.04 µM) | 0.06 µg/mL (≈ 0.125 µM) | 0.25 µg/mL (≈ 0.52 µM)
